The values that follow come from PMC5107307 (ACS chemical biology, 2016).

Structures are written as SMILES. Where “and” joins values, the source holds several entries; their conditions need not be identical. Equal entries are not always repeated. Non-standard residues stand in square brackets, D forms with d. Residues, ends and D or L forms follow the SMILES beside them. Where only a bound is given, the exact number is not on record here.

For series [1] the following is noted: prior pharmacokinetic/pharmacodynamic data; cited from earlier work.
For series [2] the following is noted: radiolabeled peptide; cited from earlier work.
Series [3] has as its target β2-adrenergic receptor (Homo sapiens, UniProt P07550). The series can be described thus: Effect on isoproterenol-stimulated cAMP production in SGS-72 cells. The conditions noted are these: Fig. S1b. In general terms: cAMP levels reflect the balance of adenylyl cyclase and phosphodiesterase activity.
In series [4] the target is T1, bovine trypsin (Bos taurus, UniProt P00760).
T1 sequence (P00760 24-246): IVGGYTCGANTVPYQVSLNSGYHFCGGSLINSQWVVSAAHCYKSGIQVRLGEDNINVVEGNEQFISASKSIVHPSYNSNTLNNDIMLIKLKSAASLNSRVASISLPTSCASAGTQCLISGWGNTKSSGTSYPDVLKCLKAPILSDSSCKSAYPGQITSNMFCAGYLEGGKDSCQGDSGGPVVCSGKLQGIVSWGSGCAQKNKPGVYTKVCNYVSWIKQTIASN
The experiment in a line: in vitro. The format is in vitro ADME.

The test system of series [5] is SGS-72 cells. The experiment in a line: Effect on basal cAMP levels in SGS-72 cells. The conditions noted are these: Fig. S1a.
Series [6] concerns the target T2, VIP-receptor 1 (VIPR1) (Homo sapiens, UniProt P32241).
T2 sequence (P32241 31-457): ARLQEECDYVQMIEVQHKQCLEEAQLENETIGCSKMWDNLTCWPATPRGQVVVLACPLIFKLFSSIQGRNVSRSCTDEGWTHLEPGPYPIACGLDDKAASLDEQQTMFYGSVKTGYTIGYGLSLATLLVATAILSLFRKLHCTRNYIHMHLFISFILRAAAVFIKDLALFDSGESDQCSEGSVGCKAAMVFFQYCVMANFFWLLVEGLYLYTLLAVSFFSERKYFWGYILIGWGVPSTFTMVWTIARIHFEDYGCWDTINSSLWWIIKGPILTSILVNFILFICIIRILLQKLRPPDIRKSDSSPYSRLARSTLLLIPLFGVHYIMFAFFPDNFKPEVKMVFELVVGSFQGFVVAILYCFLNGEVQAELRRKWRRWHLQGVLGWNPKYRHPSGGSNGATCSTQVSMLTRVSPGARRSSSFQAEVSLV
The series can be described thus: Inhibition of VIP-induced cAMP production in SGS-72 cells.

Series [7] has as its target T3, PTHR1 (Homo sapiens, UniProt Q03431).
T3 sequence (Q03431 27-593): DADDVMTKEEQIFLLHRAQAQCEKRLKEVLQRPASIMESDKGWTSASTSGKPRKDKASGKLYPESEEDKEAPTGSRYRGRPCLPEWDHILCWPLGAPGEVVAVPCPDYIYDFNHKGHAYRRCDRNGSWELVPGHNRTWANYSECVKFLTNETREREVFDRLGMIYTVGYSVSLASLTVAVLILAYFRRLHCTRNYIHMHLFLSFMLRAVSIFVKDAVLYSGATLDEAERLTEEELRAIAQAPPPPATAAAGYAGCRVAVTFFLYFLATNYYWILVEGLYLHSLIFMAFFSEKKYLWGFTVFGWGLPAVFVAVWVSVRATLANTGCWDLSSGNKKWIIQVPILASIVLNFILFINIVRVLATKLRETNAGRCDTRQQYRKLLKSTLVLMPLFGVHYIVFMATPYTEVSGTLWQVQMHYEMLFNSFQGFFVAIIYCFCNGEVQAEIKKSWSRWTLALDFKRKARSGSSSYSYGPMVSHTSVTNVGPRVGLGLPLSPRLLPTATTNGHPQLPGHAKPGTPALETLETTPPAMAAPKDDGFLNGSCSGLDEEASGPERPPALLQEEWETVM
The experiment in a line: PTHR1 competition binding assay with 125I-PTH.

The target in series [8] is proteinase K (Parengyodontium album, UniProt P06873). The series can be described thus: in vitro. The conditions noted are these: fungal, proteinase K (isolated protease).
The subject of series [9] is constitutively active PTHR1 variants. As to conditions: cited from earlier work.
The test system of series [10] is female CD1 mice. The experiment in a line: Antagonism of PTH. The class given is in vivo, mouse. The conditions noted are these: antagonist 500 nmol/kg s.c. one hour after PTH(1–34) 10 nmol/kg.
Series [11] addresses T3, PTHR1. The series can be described thus: Antagonism of agonist-stimulated cAMP generation in SGS-72 cells. The class given is cell-based.

For orientation: half-life means the time needed for the level to fall by half in the phase considered. Lower therefore signals fast loss. For orientation: IC50 means the concentration needed to halve the response being measured.

Chain of β2-adrenergic receptor (P07550 whole entry): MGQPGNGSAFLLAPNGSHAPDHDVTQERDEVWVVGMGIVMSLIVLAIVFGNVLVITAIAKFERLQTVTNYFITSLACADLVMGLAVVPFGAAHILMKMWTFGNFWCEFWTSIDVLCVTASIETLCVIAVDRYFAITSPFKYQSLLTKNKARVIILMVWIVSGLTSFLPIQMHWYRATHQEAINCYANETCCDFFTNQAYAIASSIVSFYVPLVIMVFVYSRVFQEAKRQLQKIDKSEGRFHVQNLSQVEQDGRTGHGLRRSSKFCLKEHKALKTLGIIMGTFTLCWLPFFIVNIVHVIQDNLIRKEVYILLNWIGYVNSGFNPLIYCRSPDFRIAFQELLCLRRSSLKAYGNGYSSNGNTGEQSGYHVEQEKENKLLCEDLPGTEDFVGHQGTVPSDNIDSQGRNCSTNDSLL
Chain of proteinase K (P06873 106-384): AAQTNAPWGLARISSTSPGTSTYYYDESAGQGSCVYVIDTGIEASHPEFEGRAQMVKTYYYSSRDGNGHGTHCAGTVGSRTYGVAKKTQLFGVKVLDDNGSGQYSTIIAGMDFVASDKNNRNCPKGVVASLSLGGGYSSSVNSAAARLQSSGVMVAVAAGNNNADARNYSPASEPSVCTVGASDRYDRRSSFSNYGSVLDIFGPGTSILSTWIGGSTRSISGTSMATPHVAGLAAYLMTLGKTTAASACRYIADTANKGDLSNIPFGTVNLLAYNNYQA

For the compound `CC[C@H](C)[C@H](NC(=O)[C@H](CCC(=O)O)NC(=O)[C@H](CO)NC(=O)[C@@H](NC(=O)[C@@H](N)CO)C(C)C)C(=O)N[C@@H](CCC(N)=O)C(=O)N[C@@H](CC(C)C)C(=O)N[C@@H](CCSC)C(=O)N[C@@H](Cc1cnc[nH]1)C(=O)N[C@@H](CC(N)=O)C(=O)N[C@@H](CC(C)C)C(=O)NCC(=O)N[C@@H](CCCCN)C(=O)N[C@@H](Cc1cnc[nH]1)C(=O)N[C@@H](CC(C)C)C(=O)N[C@@H](CC(N)=O)C(=O)N[C@@H](CO)C(=O)N[C@@H](CCSC)C(=O)N[C@@H](CCC(=O)O)C(=O)N[C@@H](CCCN=C(N)N)C(=O)N[C@H](C(=O)N[C@@H](CCC(=O)O)C(=O)N[C@@H](Cc1c[nH]c2ccccc12)C(=O)N[C@@H](CC(C)C)C(=O)N[C@@H](CCCN=C(N)N)C(=O)N[C@@H](CCCCN)C(=O)N[C@@H](CCCCN)C(=O)N[C@@H](CC(C)C)C(=O)N[C@@H](CCC(N)=O)C(=O)N[C@@H](CC(=O)O)C(=O)N[C@H](C(=O)N[C@@H](Cc1cnc[nH]1)C(=O)N[C@@H](CC(N)=O)C(=O)N[C@@H](Cc1ccccc1)C(=O)O)C(C)C)C(C)C` [PTH(1–34)], in series [1], the “Half-life of clearance from the circulation” value is 300 to 600 s. Moreover, the Stability in plasma entry in series [2] is “highly stable in plasma”.
For `CSCC[C@H](NC(=O)[C@H](CO)NC(=O)[C@H](CO)NC(=O)[C@H](CC(C)C)NC(=O)[C@H](Cc1c[nH]cn1)NC(=O)[C@H](CCCCN)NC(=O)[C@@H](Cc1c[nH]c2ccccc12)NC(=O)[C@H](CC(C)C)NC(=O)[C@H](CC(N)=O)NC(=O)[C@H](Cc1c[nH]cn1)NC(=O)[C@H](CCSC)NC(=O)[C@@H](N)Cc1ccccc1)C(=O)N[C@@H](CCC(=O)O)C(=O)N[C@@H](CCCNC(=N)N)C(=O)N[C@H](C(=O)N[C@@H](CCC(=O)O)C(=O)N[C@@H](Cc1c[nH]c2ccccc12)C(=O)N[C@@H](CC(C)C)C(=O)N[C@@H](CCCNC(=N)N)C(=O)N[C@@H](CCCCN)C(=O)N[C@@H](CCCCN)C(=O)N[C@@H](CC(C)C)C(=O)N[C@@H](CCC(N)=O)C(=O)N[C@@H](CC(=O)O)C(=O)N[C@H](C(=O)N[C@@H](Cc1c[nH]cn1)C(=O)N[C@@H](CC(N)=O)C(=O)N[C@@H](Cc1ccccc1)C(N)=O)C(C)C)C(C)C` [Peptide 1, bPTH(7–34) DTrp^12] (H-FMHNL[dW]KHLSSMERVEWLRKKLQDVHNF-NH2; N-terminus assumed), the “Effect on stimulation of cAMP production caused by isoproterenol” value in series [3] was “neither α-peptide 1 nor α/β-peptide 2 substantially reduces”. The “Protease stability, half life, Trypsin” value in series [4] amounted to 42 s. For the same compound, the half-life in series [4] (bovine, isolated enzyme trypsin) amounted to 42 s; in series [8], 7.8 s. Further, the “Effect on low basal cAMP levels in SGS-72 cells” value in series [5] is given as “neither α-peptide 1 nor α/β-peptide 2 substantially reduces”. In addition, the IC50 is more than 1000 nM in series [6] and 4.7 ± 1.2 nM in [7]. Besides, the “Inverse agonism of cAMP signaling at constitutively active PTHR1 variants” value in series [9] was “acts as an inverse agonist”. Further, the “Effect on PTH(1–34)-induced blood Ca2+ response, antagonist given after agonist” value in series [10] is recorded as “only small effects”. For the same compound, the “Effect on PTH(1–34)-induced blood Pi response, antagonist given after agonist” value in [10] is “only small effects”.
In the case of `CSCC[C@@H](CC(=O)N[C@@H](CCC(=O)O)C(=O)N[C@@H](CCCNC(=N)N)C(=O)N[C@H](C(=O)N[C@@H](CCC(=O)O)CC(=O)N[C@@H](Cc1c[nH]c2ccccc12)C(=O)N[C@@H](CC(C)C)C(=O)N[C@@H](CCCNC(=N)N)C(=O)N[C@@H](CCCCN)CC(=O)N[C@@H](CCCCN)C(=O)N[C@@H](CC(C)C)C(=O)N[C@@H](CCC(N)=O)C(=O)N[C@@H](CC(=O)O)CC(=O)N[C@H](C(=O)N[C@@H](Cc1c[nH]cn1)C(=O)N[C@@H](CC(N)=O)C(=O)N[C@H](CC(N)=O)Cc1ccccc1)C(C)C)C(C)C)NC(=O)[C@H](CO)NC(=O)[C@H](CO)NC(=O)[C@H](CC(C)C)NC(=O)C[C@H](Cc1c[nH]c2ccccc12)NC(=O)[C@H](CCCCN)NC(=O)[C@@H](Cc1c[nH]c2ccccc12)NC(=O)[C@H](CC(C)C)NC(=O)[C@H](CC(N)=O)NC(=O)[C@H](Cc1c[nH]cn1)NC(=O)[C@H](CCSC)NC(=O)[C@@H](N)Cc1ccccc1` [Peptide 2], in [3], the “Effect on stimulation of cAMP production caused by isoproterenol” value is on record as “neither α-peptide 1 nor α/β-peptide 2 substantially reduces”. Moreover, the “Protease stability, half life, Trypsin” value in series [4] is more than 1200 s. The “Effect on low basal cAMP levels in SGS-72 cells” value in series [5] was “neither α-peptide 1 nor α/β-peptide 2 substantially reduces”. Moreover, the IC50 in series [6] is more than 1000 nM; in series [7], 4.5 ± 1.2 nM; in series [11], 6.15 nM and 10.6 nM and 2.07 nM. The half-life in series [8] was 150 s. Further, the “Reduction in M-PTH(1–11) inhibition potency of 2 in comparison to 1” value in [11] (SGS-72 cells, cAMP response to M-PTH(1–11)) was less than 5 fold. The “Effect on PTH(1–34)-induced blood Ca2+ response, antagonist given after agonist” value in series [10] was “only small effects”. The “Effect on PTH(1–34)-induced blood Pi response, antagonist given after agonist” value in series [10] is reported as “only small effects”.
